Source: PMC5218480 (PLoS ONE, 2017)

Test system: MV-4-11 cells
Assay: Gene expression microarray analysis (Affymetrix PrimeView) and GSEA
Type: cell-based, human
Parameters: RFU PODN (11730768_x_at) / Fold change /veh PODN (11730768_x_at) / RFU LINC00158 (11744669_a_at) / Fold change /veh LINC00158 (11744669_a_at) / RFU DUSP10 (11751237_a_at) / Fold change /veh DUSP10 (11751237_a_at) / RFU ID3 (11757404_x_at) / Fold change /veh ID3 (11757404_x_at) / RFU PLEKHG5 (11737974_s_at) / Fold change /veh PLEKHG5 (11737974_s_at) / RFU LRRC4B (11730491_at) / Fold change /veh LRRC4B (11730491_at) / RFU GIMAP4 (11747438_a_at) / Fold change /veh GIMAP4 (11747438_a_at) / RFU KRT8 (11758183_x_at) / Fold change /veh KRT8 (11758183_x_at) / RFU CNN1 (11734310_a_at) / Fold change /veh CNN1 (11734310_a_at) / RFU VPS37D (11726825_at) / Fold change /veh VPS37D (11726825_at) / RFU C10orf10 (11716522_x_at) / Fold change /veh C10orf10 (11716522_x_at) / RFU KIR2DL2 /// KIR2DL4 /// KIR2DL5A /// KIR2DL5B /// KIR2DS1 /// KIR2DS2 /// KIR2DS3 /// KIR2DS4 /// KIR3DL3 /// KIR3DL3 /// KIR3DS1 (11738374_at) / Fold change /veh KIR2DL2 /// KIR2DL4 /// KIR2DL5A /// KIR2DL5B /// KIR2DS1 /// KIR2DS2 /// KIR2DS3 /// KIR2DS4 /// KIR3DL3 /// KIR3DL3 /// KIR3DS1 (11738374_at) / RFU C1QL1 (11718748_at) / Fold change /veh C1QL1 (11718748_at) / RFU TMPRSS4 (11747572_a_at) / Fold change /veh TMPRSS4 (11747572_a_at) / RFU HAMP (11756126_x_at) / Fold change /veh HAMP (11756126_x_at) / RFU RNFT2 (11725882_a_at) / Fold change /veh RNFT2 (11725882_a_at) / RFU NR4A2 (11747474_a_at) / Fold change /veh NR4A2 (11747474_a_at) / RFU ABCC12 (11746883_a_at) / Fold change /veh ABCC12 (11746883_a_at) / RFU TMEM136 (11760407_x_at) / Fold change /veh TMEM136 (11760407_x_at) / RFU CLDN22 /// WWC2 (11732394_at) / Fold change /veh CLDN22 /// WWC2 (11732394_at) / RFU HLA-DPB1 (11760878_x_at) / Fold change /veh HLA-DPB1 (11760878_x_at) / RFU SPINT1 (11716480_a_at) / Fold change /veh SPINT1 (11716480_a_at) / RFU GAP43 (11754022_s_at) / Fold change /veh GAP43 (11754022_s_at) / RFU A4GNT (11735810_at) / Fold change /veh A4GNT (11735810_at) / RFU PRB3 (11715151_x_at) / Fold change /veh PRB3 (11715151_x_at) / RFU TUBB4B (11761932_at) / Fold change /veh TUBB4B (11761932_at) / RFU CAPN14 (11732068_a_at) / Fold change /veh CAPN14 (11732068_a_at) / RFU TMCC2 (11721928_a_at) / Fold change /veh TMCC2 (11721928_a_at) / RFU IRGQ (11745062_a_at) / Fold change /veh IRGQ (11745062_a_at) / RFU FAM174B (11720279_a_at) / Fold change /veh FAM174B (11720279_a_at) / RFU TMPRSS4 (11748680_a_at) / Fold change /veh TMPRSS4 (11748680_a_at) / RFU FAM212B (11763350_a_at) / Fold change /veh FAM212B (11763350_a_at) / RFU PLEKHG5 (11743358_a_at) / Fold change /veh PLEKHG5 (11743358_a_at) / RFU ZSCAN30 (11745921_a_at) / Fold change /veh ZSCAN30 (11745921_a_at) / RFU CMKLR1 (11741424_a_at) / Fold change /veh CMKLR1 (11741424_a_at) / RFU LOC101060620 /// MAPK8IP1 (11723275_at) / Fold change /veh LOC101060620 /// MAPK8IP1 (11723275_at) / RFU SPTSSB (11747773_x_at) / Fold change /veh SPTSSB (11747773_x_at) / RFU PRSS12 (11739890_at) / Fold change /veh PRSS12 (11739890_at) / RFU BIN1 (11741810_x_at) / Fold change /veh BIN1 (11741810_x_at) / RFU WNT11 (11732464_a_at) / Fold change /veh WNT11 (11732464_a_at) / RFU C10orf10 (11716521_a_at) / Fold change /veh C10orf10 (11716521_a_at) / RFU C5orf56 (11738089_at) / Fold change /veh C5orf56 (11738089_at) / RFU CYB561 (11721691_x_at) / Fold change /veh CYB561 (11721691_x_at) / RFU ANKRD19P (11752326_a_at) / Fold change /veh ANKRD19P (11752326_a_at) / RFU OR2T12 /// OR2T33 /// OR2T8 (11738714_s_at) / Fold change /veh OR2T12 /// OR2T33 /// OR2T8 (11738714_s_at) / RFU VCAN (11748164_a_at) / Fold change /veh VCAN (11748164_a_at) / RFU JSRP1 (11732532_at) / Fold change /veh JSRP1 (11732532_at) / RFU KRTAP10-11 (11738290_x_at) / Fold change /veh KRTAP10-11 (11738290_x_at) / RFU MYO3A (11730013_a_at) / Fold change /veh MYO3A (11730013_a_at) / RFU EBF3 (11725865_a_at) / Fold change /veh EBF3 (11725865_a_at) / RFU CAMK2N1 (11719241_x_at) / Fold change /veh CAMK2N1 (11719241_x_at) / RFU C5orf56 (11738088_a_at) / Fold change /veh C5orf56 (11738088_a_at) / RFU OLFML3 (11715873_a_at) / Fold change /veh OLFML3 (11715873_a_at) / RFU LOC100653217 /// NTM (11731650_a_at) / Fold change /veh LOC100653217 /// NTM (11731650_a_at) / RFU MAPK11 (11762145_a_at) / Fold change /veh MAPK11 (11762145_a_at) / RFU FIZ1 (11724087_x_at) / Fold change /veh FIZ1 (11724087_x_at) / RFU OASL (11726364_x_at) / Fold change /veh OASL (11726364_x_at) / RFU SOX15 (11748057_x_at) / Fold change /veh SOX15 (11748057_x_at) / RFU CD79A (11719716_a_at) / Fold change /veh CD79A (11719716_a_at) / RFU HIST1H1D (11736915_at) / Fold change /veh HIST1H1D (11736915_at) / RFU CASKIN2 (11723855_a_at) / Fold change /veh CASKIN2 (11723855_a_at) / RFU LOC730098 (11760151_x_at) / Fold change /veh LOC730098 (11760151_x_at) / RFU OR4N2 (11742367_at) / Fold change /veh OR4N2 (11742367_at) / RFU PRRT2 (11749266_a_at) / Fold change /veh PRRT2 (11749266_a_at) / RFU SNX32 (11753110_a_at) / Fold change /veh SNX32 (11753110_a_at) / RFU CDHR5 (11726645_a_at) / Fold change /veh CDHR5 (11726645_a_at) / RFU RCAN1 (11760418_a_at) / Fold change /veh RCAN1 (11760418_a_at) / RFU FAM167A (11723789_a_at) / Fold change /veh FAM167A (11723789_a_at) / RFU FAM26E (11764081_at) / Fold change /veh FAM26E (11764081_at) / RFU ISYNA1 (11749810_s_at) / Fold change /veh ISYNA1 (11749810_s_at) / RFU ACY1 (11761880_at) / Fold change /veh ACY1 (11761880_at) / RFU 11764098_at / Fold change /veh 11764098_at / RFU SAMD14 (11745864_x_at) / Fold change /veh SAMD14 (11745864_x_at) / RFU NPB (11741838_a_at) / Fold change /veh NPB (11741838_a_at) / RFU TMPRSS6 (11731388_a_at) / Fold change /veh TMPRSS6 (11731388_a_at) / RFU KRTAP10-2 (11738614_at) / Fold change /veh KRTAP10-2 (11738614_at) / RFU ARHGAP8 /// PRR5-ARHGAP8 (11727945_x_at) / Fold change /veh ARHGAP8 /// PRR5-ARHGAP8 (11727945_x_at) / RFU KRTAP5-7 /// NADSYN1 (11734609_at) / Fold change /veh KRTAP5-7 /// NADSYN1 (11734609_at) / RFU RASL12 (11751679_a_at) / Fold change /veh RASL12 (11751679_a_at) / RFU CDKN2B (11736163_a_at) / Fold change /veh CDKN2B (11736163_a_at) / RFU PRF1 (11729649_at) / Fold change /veh PRF1 (11729649_at) / RFU, ZNF638 /// ZNF638-IT1 / Fold change vs veh, ZNF638 /// ZNF638-IT1 / RFU, PANK3 / Fold change vs veh, PANK3 / RFU, SH3YL1 / Fold change vs veh, SH3YL1 / RFU, ZEB2 / Fold change vs veh, ZEB2 / RFU, NRIP1 / Fold change vs veh, NRIP1 / RFU, PTTG1IP / Fold change vs veh, PTTG1IP / RFU, CAPN2 / Fold change vs veh, CAPN2 / RFU, MED14 / Fold change vs veh, MED14 / RFU, SNORA58 / Fold change vs veh, SNORA58 / RFU, C1orf63 / Fold change vs veh, C1orf63 / RFU, LRRFIP1 / Fold change vs veh, LRRFIP1 / RFU, NDUFAF7 / Fold change vs veh, NDUFAF7 / RFU, SLC12A2 / Fold change vs veh, SLC12A2 / RFU, IBTK / Fold change vs veh, IBTK / RFU, ESF1 / Fold change vs veh, ESF1 / Fold change vs veh, TMEM50B / RFU, TAOK1 / Fold change vs veh, TAOK1 / RFU, ACBD3 / Fold change vs veh, ACBD3 / RFU, TMA16 / Fold change vs veh, TMA16 / RFU, RWDD3 / Fold change vs veh, RWDD3 / RFU, BCAT1 / Fold change vs veh, BCAT1 / RFU, EDEM3 / Fold change vs veh, EDEM3 / RFU, TMEM33 / Fold change vs veh, TMEM33 / RFU, WDR75 / Fold change vs veh, WDR75 / RFU, AHCTF1 / Fold change vs veh, AHCTF1 / RFU, TFRC / Fold change vs veh, TFRC / RFU, ZDHHC17 / Fold change vs veh, ZDHHC17 / RFU, NOM1 / Fold change vs veh, NOM1 / RFU, ARL8B / Fold change vs veh, ARL8B / RFU, ZBTB11 / Fold change vs veh, ZBTB11 / RFU, TAMM41 / Fold change vs veh, TAMM41 / RFU, KIAA1704 /// LOC100996395 / Fold change vs veh, KIAA1704 /// LOC100996395 / RFU, ING1 / Fold change vs veh, ING1 / RFU, TRMT61B / Fold change vs veh, TRMT61B / RFU, FUBP3 / Fold change vs veh, FUBP3 / RFU, TP53 / Fold change vs veh, TP53 / RFU, TNKS2 / Fold change vs veh, TNKS2 / RFU, ZFP14 / Fold change vs veh, ZFP14 / RFU, ACTR2 / Fold change vs veh, ACTR2 / RFU, PPP3R1 / Fold change vs veh, PPP3R1 / RFU, PIK3R1 / Fold change vs veh, PIK3R1 / RFU, HNRNPA1 / Fold change vs veh, HNRNPA1 / RFU, RNF170 / Fold change vs veh, RNF170 / RFU, ZNF28 / Fold change vs veh, ZNF28 / RFU, RNGTT / Fold change vs veh, RNGTT / RFU, OGT / Fold change vs veh, OGT / RFU, BRD1 / Fold change vs veh, BRD1 / RFU, MARS / Fold change vs veh, MARS / RFU, ZNF655 / Fold change vs veh, ZNF655 / RFU, FAHD1 / Fold change vs veh, FAHD1 / RFU, BDP1 / Fold change vs veh, BDP1 / RFU, LRRCC1 / Fold change vs veh, LRRCC1 / RFU, ARID1A / Fold change vs veh, ARID1A / RFU, ZNF146 / Fold change vs veh, ZNF146 / RFU, ZNF330 / Fold change vs veh, ZNF330 / RFU, GPN3 / Fold change vs veh, GPN3 / RFU, C9orf123 / Fold change vs veh, C9orf123 / RFU, N4BP2L2 / Fold change vs veh, N4BP2L2 / RFU, ARFIP1 / Fold change vs veh, ARFIP1 / RFU, FAM179B / Fold change vs veh, FAM179B / RFU, BCL10 / Fold change vs veh, BCL10 / RFU, UHRF1BP1L / Fold change vs veh, UHRF1BP1L / RFU, BET1 / Fold change vs veh, BET1 / RFU, CNOT2 / Fold change vs veh, CNOT2 / RFU, ZNF268 / Fold change vs veh, ZNF268 / Fold change vs veh, ZNF507 / RFU, DGCR2 / Fold change vs veh, DGCR2 / RFU, WDSUB1 / Fold change vs veh, WDSUB1 / Fold change vs veh, HSP90B1 /// MIR3652 / RFU, ADSS / Fold change vs veh, ADSS / RFU, GK / Fold change vs veh, GK / RFU, ZNF148 / Fold change vs veh, ZNF148 / RFU, TAF9 / Fold change vs veh, TAF9 / RFU, SLC1A5 / Fold change vs veh, SLC1A5 / RFU, SLMO2 / Fold change vs veh, SLMO2 / RFU, ABCC4 / Fold change vs veh, ABCC4 / RFU, LOC101060439 /// RAP1B / Fold change vs veh, LOC101060439 /// RAP1B / RFU, RFX7 / Fold change vs veh, RFX7 / RFU, GTPBP10 / Fold change vs veh, GTPBP10 / RFU, CNEP1R1 / Fold change vs veh, CNEP1R1 / RFU, BIVM-ERCC5 /// ERCC5 / Fold change vs veh, BIVM-ERCC5 /// ERCC5 / RFU, ILF3 / Fold change vs veh, ILF3 / RFU 11762660_at / Fold change /veh 11762660_at / RFU VCAN (11757783_s_at) / Fold change /veh VCAN (11757783_s_at) / RFU DDX43 (11728927_at) / Fold change /veh DDX43 (11728927_at) / RFU KRT8 (11758188_x_at) / Fold change /veh KRT8 (11758188_x_at) / RFU NKD1 (11759106_at) / Fold change /veh NKD1 (11759106_at) / RFU SRD5A1 (11742802_a_at) / Fold change /veh SRD5A1 (11742802_a_at) / RFU TPSAB1 /// TPSB2 (11721975_s_at) / Fold change /veh TPSAB1 /// TPSB2 (11721975_s_at) / RFU GSTM3 (11746129_a_at) / Fold change /veh GSTM3 (11746129_a_at) / RFU IL23R (11737362_x_at) / Fold change /veh IL23R (11737362_x_at) / RFU TMEM51 (11727254_a_at) / Fold change /veh TMEM51 (11727254_a_at) / RFU PIWIL2 (11732686_x_at) / Fold change /veh PIWIL2 (11732686_x_at) / RFU ORM1 (11744905_x_at) / Fold change /veh ORM1 (11744905_x_at) / RFU CCDC152 (11743942_at) / Fold change /veh CCDC152 (11743942_at) / RFU ECM1 (11717891_a_at) / Fold change /veh ECM1 (11717891_a_at) / RFU IL23R (11748794_a_at) / Fold change /veh IL23R (11748794_a_at) / RFU TNFAIP8L3 (11732012_x_at) / Fold change /veh TNFAIP8L3 (11732012_x_at) / RFU MBOAT4 (11741988_at) / Fold change /veh MBOAT4 (11741988_at) / RFU 11764193_at / Fold change /veh 11764193_at / RFU TMEM53 (11763286_at) / Fold change /veh TMEM53 (11763286_at) / RFU MAGEB2 (11727129_at) / Fold change /veh MAGEB2 (11727129_at) / RFU TMEM200A (11744735_a_at) / Fold change /veh TMEM200A (11744735_a_at) / RFU CCDC152 (11751479_a_at) / Fold change /veh CCDC152 (11751479_a_at) / RFU FAM211A (11726209_a_at) / Fold change /veh FAM211A (11726209_a_at) / RFU RGS16 (11746705_a_at) / Fold change /veh RGS16 (11746705_a_at) / RFU VCAN (11755009_s_at) / Fold change /veh VCAN (11755009_s_at) / RFU RHOB (11743442_s_at) / Fold change /veh RHOB (11743442_s_at) / RFU RGS16 (11720943_a_at) / Fold change /veh RGS16 (11720943_a_at) / RFU RGS16 (11720944_at) / Fold change /veh RGS16 (11720944_at) / RFU, VPS4B / Fold change vs veh, VPS4B / RFU, CREB1 / Fold change vs veh, CREB1 / RFU, DNAJC13 / Fold change vs veh, DNAJC13 / RFU, GNAQ / Fold change vs veh, GNAQ / RFU, CDK5R1 / Fold change vs veh, CDK5R1 / RFU, ZRANB3 / Fold change vs veh, ZRANB3 / RFU, CUL4A / Fold change vs veh, CUL4A / RFU, CCNY / Fold change vs veh, CCNY / RFU, UFL1 / Fold change vs veh, UFL1 / RFU, COG3 / Fold change vs veh, COG3 / RFU, DIAPH2 / Fold change vs veh, DIAPH2 / RFU, SKA2 / Fold change vs veh, SKA2 / RFU, AFF3 / Fold change vs veh, AFF3 / RFU, LMF1 / Fold change vs veh, LMF1 / RFU, IPO11 / Fold change vs veh, IPO11 / RFU, DFFB / Fold change vs veh, DFFB / RFU, FOXP1 / Fold change vs veh, FOXP1 / RFU, CARD8 / Fold change vs veh, CARD8 / RFU, STRN3 / Fold change vs veh, STRN3 / RFU, ADK / Fold change vs veh, ADK / RFU, RASSF2 / Fold change vs veh, RASSF2 / RFU, WIPF1 / Fold change vs veh, WIPF1 / RFU, LARP1B / Fold change vs veh, LARP1B / RFU, RASA1 / Fold change vs veh, RASA1 / RFU, RB1 / Fold change vs veh, RB1 / RFU, PPFIA1 / Fold change vs veh, PPFIA1 / RFU, MAT2A / Fold change vs veh, MAT2A / RFU, CCT5 / Fold change vs veh, CCT5 / RFU, WDR92 / Fold change vs veh, WDR92 / RFU, CUX1 / Fold change vs veh, CUX1 / RFU, TTC7A / Fold change vs veh, TTC7A / RFU, TMEM135 / Fold change vs veh, TMEM135 / RFU, DEPTOR / Fold change vs veh, DEPTOR / RFU, CPM / Fold change vs veh, CPM / RFU, DNAJB6 / Fold change vs veh, DNAJB6 / RFU, CACNA2D3 / Fold change vs veh, CACNA2D3 / RFU, DTX4 / Fold change vs veh, DTX4 / RFU, TFCP2 / Fold change vs veh, TFCP2 / RFU, GMCL1 /// GMCL1P1 / Fold change vs veh, GMCL1 /// GMCL1P1 / RFU, AEBP2 / Fold change vs veh, AEBP2 / RFU, SNHG1 /// SNORD22 /// SNORD25 /// SNORD26 /// SNORD27 /// SNORD28 /// SNORD29 /// SNORD31 / Fold change vs veh, SNHG1 /// SNORD22 /// SNORD25 /// SNORD26 /// SNORD27 /// SNORD28 /// SNORD29 /// SNORD31 / Fold change (Aza/veh), C12orf56 (ProbeSet 11735607_a_at) / Fold change (ACY-1035/veh), C12orf56 (ProbeSet 11735607_a_at) / Fold change (Aza/veh), FGFR1OP (ProbeSet 11751329_s_at) / Fold change (ACY-1035/veh), FGFR1OP (ProbeSet 11751329_s_at) / Fold change (Aza/veh), VPS36 (ProbeSet 11739960_a_at) / Fold change (ACY-1035/veh), VPS36 (ProbeSet 11739960_a_at) / RFU SYPL1 (11715823_x_at) / Fold change /veh SYPL1 (11715823_x_at) / RFU IGFBP7 (11715501_s_at) / Fold change /veh IGFBP7 (11715501_s_at) / RFU REEP3 (11722064_at) / Fold change /veh REEP3 (11722064_at) / RFU IGLL1 (11728026_x_at) / Fold change /veh IGLL1 (11728026_x_at): dose or concentration left out as unconfirmed
Conditions: ProbeSet 11741199_a_at; LIST B

## Nc1ncn([C@@H]2O[C@H](CO)[C@@H](O)[C@H]2O)c(=O)n1 [azacitidine]
  Fold change vs veh, LRRCC1: 0.97
